For 2 compounds, Drug uptake and dose excreted results are on record in ChEMBL document CHEMBL1138313, “Cyclization of the acyl glucuronide metabolite of a neutral endopeptidase inhibitor to an electrophilic glutarimide: synthesis, reactivity, and mechanistic analysis” (J Med Chem, 2007).

Common to all, as to type: ADME, organism-based
One data set relates to Rattus norvegicus. The data set is described as follows: Biodistribution in Wistar rat bile at 15 umol/kg, iv. To be noted: in vivo.
Data set [1] is described as follows: Biodistribution in Wistar rat bile at 50 umol/kg, iv after 1 hr. To be noted: read-out: Drug uptake.
Data set [2] can be described thus: Biodistribution in Wistar rat bile at 50 umol/kg, iv after 5 hrs. To be noted: read-out: Drug uptake.
Data set [3] is described as follows: Biodistribution in Wistar rat bile assessed as drug elimination at 15 umol/kg, iv after 1 hr. Conditions: read-out: Drug uptake.
Data set [4] is described as follows: Biodistribution in Wistar rat bile assessed as drug elimination at 15 umol/kg, iv after 5 hrs. To be noted: read-out: Drug uptake.
Data set [5] is described as follows: Biodistribution in Wistar rat urine at 15 umol/kg, iv after 5 hrs. To be noted: read-out: Drug uptake.
The next data set relates to Plasma. Briefly: Biodistribution in Wistar rat plasma per mL at 15 umol/kg, iv after 5 hrs. To be noted: in vivo.

For the compound `CCC[C@@H]1CC2(CCCC2)C(=O)N(c2nnc(CC)s2)C1=O`, the Drug uptake in the data set on Rattus norvegicus is listed as 6%. In addition, the dose excreted at 1 h in data set [1] was 4.5%. Besides, in data set [2], the dose excreted at 5 h is 11%.

Turning to `CCC[C@H](CC1(C(=O)Nc2nn[14c](CC)s2)CCCC1)C(=O)O`, the dose excreted at 1 h in data set [3] is 28.7%. Also, the results for the dose excreted at 5 h in data set [4] and in data set [5] were 75.1% and 4.9%, respectively. In addition, the Drug uptake with Plasma was 0.3 %ID.
